According to a melting point compilation (Tetko et al.; mined from patent text by program, amines drawn as free bases though some values may be those of a salt):

melting point [°C] | Structure (SMILES)
117 to 118 | CC1(C)OC(C=Cc2ccnc3ccccc23)=CC1=O
130 to 133 | CC(=O)C(=NNc1cccc2ccccc12)Sc1ccc(C(C)C)cc1
97 to 98 | CCN1CCc2cc([N+](=O)[O-])ccc21
119 to 121 | Cc1cc(C=O)ccc1C(N)=O
176 to 178 | COc1ccc(-n2nc(Sc3ccc(S(C)=O)cc3)c(C)c(C#N)c2=O)cc1 (configuration not stated)
178 to 180 | Cc1ccnc(NC(=O)Nc2cccc3c2C2CCCCN2C3=O)c1 (configuration not stated)
150 to 155 | Cc1ccc(S(=O)(=O)NC(=O)Nc2cc(C)c(S(=O)(=O)C[N+](=O)[O-])c(C)c2)cc1
254 to 256 | Cc1[nH]c(C(=O)NC2CCN(c3cc(C(=O)O)nc4ccccc34)CC2)c(Cl)c1Cl
97 to 100 | Cc1cccc(-c2[nH]c(C(C)C)nc2-c2cccc(-c3ccccn3)c2)n1
65 | COC(=O)C(=C(C)C)N1C(=O)C(NC(=O)COc2ccccc2)C1SN1CCCCC1 (configuration not stated)
< 50 | CCSN(C)C(=O)Nc1ccc(Br)cc1
275 to 280 | COc1cccc(-c2cc3cnc(N)nc3nc2NC(=O)NC(C)(C)C)c1
130 | CC(=O)OC1CSC(Oc2ccc(C)nc2)C(OC(C)=O)C1OC(C)=O (configuration not stated)
231 to 233 | CCOC(=O)c1cn(C2CC2)c2c(F)c(N3CCN(C)CC3)c(F)c([Si](C)(C)C)c2c1=O
216 to 218 | CCOc1cc(Cc2cnc(N)nc2N)cc2c1OC(C)(C)C=C2C
160 to 161 | CNC(=O)c1cc(-c2ccc(OC)cc2)nn(CCO)c1=O
193 to 194 | CCCOc1ccccc1-c1nc2nc(NCC(C)OC)ncc2c(=O)[nH]1 (configuration not stated)
272 to 274 | Cc1nnc(Cl)c2cc3n(c12)CCCC3
160 to 163 | O=C(NCCc1c[nH]cn1)c1ccccc1NS(=O)(=O)c1cccc(C(F)(F)F)c1
235 to 236 | O=C(OC(=O)c1cc2cc(O)ccc2s1)c1ccccc1
95 to 97 | O=C(O)[C@@H]1CSC(=O)N1Cc1ccccc1
124 | CC(C)N(CCC(c1ccccc1)c1cc(CO)ccc1OC(=O)c1ccc([N+](=O)[O-])cc1)C(C)C (configuration not stated)

melting point [°C] | Structure (SMILES)
126 to 128 | COC(=O)c1ccc(OCC2CC(=O)N(c3ccc(OC(C)(C)C)cc3)C2)cc1 (configuration not stated)
90.8 | CCc1cc(Cl)c(OC)c(C(=O)N[C@H]2CCN(CCCC(=O)N3CCCC3)C[C@H]2OC)c1O (relative stereo)
220 to 222 | NC(=O)c1ccnc(OCc2nc3cc(Cl)ccc3s2)c1
76 to 78 | CCOC(=O)C(Cc1ccc(OCCN2COc3ccccc3C2=O)cc1)OCC (configuration not stated)
167 to 169 | CC(C)(C)COc1ccc(NC(=O)c2ccn(-c3ccc(F)cc3)c2)cc1C#N
108 to 109 | NCc1ccc(CC(=O)Nc2cccc(C(=O)NCCC(=O)O)c2)cc1
213 to 215 | O=C1c2cc3ccc4c(c3c(-c3ccc5c(c3)OCO5)c2CN1CCCO)OCO4
64 to 65 | CCCCCC(=O)SC1CCN(C(C(=O)C2CC2)c2ccccc2F)CC1 (configuration not stated)
194 to 195 | CC(C)(C)COc1ccc(NC(=O)c2cc3ccccc3n2CC(=O)O)cc1C#N
99.8 to 101 | CCC(C)Sc1cc(C(F)(F)F)ccc1C(=O)O (configuration not stated)
184 to 186 | CCC(=O)NC1Cc2cccc3ccc(OC)c(c23)C1 (configuration not stated)
110 to 111 | CCOc1ccc(S(=O)(=O)N2CCN(C)CC2)cc1C(=O)OC
81 to 83 | CCCCOc1ccc2c(c1)CCC(C(=O)OC)C2O (configuration not stated)
120 to 125 | Cc1cc(=S)c(OCC(=O)O)co1
133 to 135 | C=CCc1cc2c(c(CC=C)c1O)CCC(=O)N2CC=C(C)C
78 | Brc1ccc(N2CCC(Cc3ccccc3)CC2)nc1
109 | O=[N+]([O-])c1ccc(F)c(-n2nc3c(c2Cl)CCCC3)c1
137 to 138 | COCCCS(=O)(=O)NC(=O)/C=C/c1cc(OCC2CC2)nn1Cc1ccc(C(F)(F)F)cc1Cl
133 | CN(C)c1ccccc1SCC(N)=NO
> 300 | CCCn1c(=O)c2nc(-c3ccc(/C=C/C(=O)O)cc3)[nH]c2n(Cc2ccccc2)c1=O
60 to 62 | CC(C)c1cccc(C(C)C)c1-n1nnn(C(C)C)c1=O
97 to 100 | CCN1CC(=O)N(CC)c2cc(Nc3ncc(Cl)c(Nc4ccc(OC)cc4-n4cccn4)n3)c(OC)cc2C1

melting point [°C] | Structure (SMILES)
243 to 245 | Cc1ccccc1Nc1nc(O)c2sccc2n1
82 to 84 | CC(=O)NC(=O)C(=O)C(C)(C)C
64 to 67 | CC(C)(C)OC(=O)N1CCC[C@@H](O)[C@H](N)C1
196 to 199 | COc1ccc(/C=C/c2ccncc2)cc1O
233 to 237 | CC(C)(O)c1cnn2c(-c3ccc(F)c(-c4ccncc4)c3)cnc2n1
208 to 210 | O=C(CCc1ccc2cc(F)ccc2n1)NO
110 to 112 | Cc1ccc(S(=O)(=O)n2c(C3(O)C=CC(=O)c4ccccc43)cc3ccccc32)cc1 (configuration not stated)
49 to 50 | CCOC(=O)CN(CC(=O)OCC)C(=O)c1cc(OCCCCCCCCCCCCOc2ccccc2)ccc1OCc1ccccc1
176 to 180 | CCc1cc(=O)c(C(=O)OC)c(C)[nH]1
94 to 95 | CC(=O)NCS[C@@H]1CC(=O)N(Cc2ccc(Oc3ccc(F)cc3)nc2)C1
164 to 166 | O=C(CNC(=O)c1ccc(F)cc1)c1cccnc1
91 to 92.5 | CN1CCN(c2cc(Cl)nc(-c3ccccc3)n2)CC1
152 | COc1nc(OC)nc(Oc2ccccc2C(=O)O)n1
268 | N#Cc1nc2ccccc2[nH]1
98 | O=c1ncc(C(F)(F)F)cn1COc1ccc(Cl)cc1
142 to 146 | CS(=O)(=O)Nc1cccc(Nc2nc(NC3CCC3)c3nc[nH]c3n2)c1
151 to 152 | CC(=O)OCC1OC(OC2C(COC(C)=O)OC(OCCBr)C(OC(C)=O)C2OC(C)=O)C(OC(C)=O)C(OC(C)=O)C1OC(C)=O (configuration not stated)
144 to 157 | N#Cc1c(N2CCN(C(=O)c3ccc4ccccc4n3)CC2)c2ccccc2n(Cc2ccc(F)cc2)c1=O
45 to 48 | CCCCCCCCCCC(Oc1ccc(C2=CCCCCCC2)cc1)C(=O)O (configuration not stated)
187 to 188 | CCn1c2ccccc2c(=NN=C2NCCS2)c2ccccc21
174 to 176 | O=c1c2cccnc2c(-c2ccccc2)nn1-c1ccccc1
268 to 269 | Cc1nc2c(s1)-c1nc(Nc3ccc(O)cc3)ncc1CC2

Structure (SMILES) | melting point [°C]
CC(C)(C)OC(=O)N[C@@H](Cc1ccc(O)cc1)C(=O)NCCCN1CCN(CCCNc2cccc3c2C(=O)c2ccccc2C3=O)CC1 | 102
COc1ccc(C(=O)Nc2cccc3c2CCN(C)C3)cc1 | 170 to 172
CCCCCCC(C)(C)c1cc(OC)c(C2=C[C@@H]3CC[C@@]2(C(=O)O)C3(C)C)c(OC)c1 | 101 to 102
COC(=O)CN1C(=O)CN=C(c2ccccc2)c2cc(Cl)ccc21 | 137 to 138
O=C(OCC1CC1)c1ncn2c1[C@@H]1CCCN1C(=O)c1cc(F)ccc1-2 | 140 to 142
COc1cccc2c1C(=O)c1ccccc1C21CCN(C)CC1 | 170 to 172
